Laboratory results published in ChEMBL document CHEMBL4130375, “Design, synthesis and biological evaluation of 4-amidobenzimidazole acridine derivatives as dual PARP and Topo inhibitors for cancer therapy” (Eur J Med Chem, 2017).
Active and inactive are the calls of the source. The rule behind the calls is not given here.

Key:
[1] = target: Poly [ADP-ribose] polymerase 1 (Homo sapiens, UniProt P09874); assay: Inhibition of PARP1 (unknown origin) assessed as reduction in biotinylated poly(ADP-ribose) incorporation on to histone protein by ELISA based colorimetric assay
HCC1937 = assay: Potency index, ratio of m-AMSA IC50 to compound IC50 for human HCC1937 cells harboring BRCA1 mutant; type: functional
[2] = target: DNA topoisomerase 2-alpha (Homo sapiens) (UniProt P11388); assay: Inhibition of human topoisomerase-2 at 100 uM using supercoiled pBR322 DNA as substrate after 10 to 15 mins by ethidium bromide staining based electrophoresis method
MCF7 [3] = assay: Induction of apoptosis in human MCF7 cells assessed as live cells at 10 uM after 48 hrs by Annexin V-FITC/propidium iodide staining based flow cytometry (reference value: 99.9%); type: functional
MCF7 [4] = assay: Induction of apoptosis in human MCF7 cells assessed as early apoptotic cells at 10 uM after 48 hrs by Annexin V-FITC/propidium iodide staining based flow cytometry (reference value: 0.108%); type: functional
MCF7 [5] = assay: Upregulation of cleaved caspase-9 protein expression in human MCF7 cells after 24 hrs by Western blot method; type: functional, cell-based
MCF7 [6] = assay: Cell cycle arrest in human MCF7 cells assessed as accumulation at S phase at 1 uM after 24 hrs by propidium iodide staining based flow cytometry (reference value: 59.72 +/- 2.98%); type: functional
MCF7 [7] = assay: Upregulation of p21 protein expression in human MCF7 cells after 24 hrs by Western blot method; type: functional, cell-based
MCF7 [8] = assay: Downregulation of CDK6 protein expression in human MCF7 cells up to 10 uM after 24 hrs by Western blot method; type: functional, cell-based
[9] = Intrinsic clearance in human liver microsomes at 1.11 uM preincubated for 5 mins followed by NADPH addition by LC-MS/MS analysis; type: ADME, microsome; conditions: read-out: CLH
[10] = Half life in mouse liver microsomes at 1.11 uM preincubated for 5 mins followed by NADPH addition by LC-MS/MS analysis; type: ADME, microsome

DNA topoisomerase 2-alpha (Homo sapiens), sequence (P11388 whole entry): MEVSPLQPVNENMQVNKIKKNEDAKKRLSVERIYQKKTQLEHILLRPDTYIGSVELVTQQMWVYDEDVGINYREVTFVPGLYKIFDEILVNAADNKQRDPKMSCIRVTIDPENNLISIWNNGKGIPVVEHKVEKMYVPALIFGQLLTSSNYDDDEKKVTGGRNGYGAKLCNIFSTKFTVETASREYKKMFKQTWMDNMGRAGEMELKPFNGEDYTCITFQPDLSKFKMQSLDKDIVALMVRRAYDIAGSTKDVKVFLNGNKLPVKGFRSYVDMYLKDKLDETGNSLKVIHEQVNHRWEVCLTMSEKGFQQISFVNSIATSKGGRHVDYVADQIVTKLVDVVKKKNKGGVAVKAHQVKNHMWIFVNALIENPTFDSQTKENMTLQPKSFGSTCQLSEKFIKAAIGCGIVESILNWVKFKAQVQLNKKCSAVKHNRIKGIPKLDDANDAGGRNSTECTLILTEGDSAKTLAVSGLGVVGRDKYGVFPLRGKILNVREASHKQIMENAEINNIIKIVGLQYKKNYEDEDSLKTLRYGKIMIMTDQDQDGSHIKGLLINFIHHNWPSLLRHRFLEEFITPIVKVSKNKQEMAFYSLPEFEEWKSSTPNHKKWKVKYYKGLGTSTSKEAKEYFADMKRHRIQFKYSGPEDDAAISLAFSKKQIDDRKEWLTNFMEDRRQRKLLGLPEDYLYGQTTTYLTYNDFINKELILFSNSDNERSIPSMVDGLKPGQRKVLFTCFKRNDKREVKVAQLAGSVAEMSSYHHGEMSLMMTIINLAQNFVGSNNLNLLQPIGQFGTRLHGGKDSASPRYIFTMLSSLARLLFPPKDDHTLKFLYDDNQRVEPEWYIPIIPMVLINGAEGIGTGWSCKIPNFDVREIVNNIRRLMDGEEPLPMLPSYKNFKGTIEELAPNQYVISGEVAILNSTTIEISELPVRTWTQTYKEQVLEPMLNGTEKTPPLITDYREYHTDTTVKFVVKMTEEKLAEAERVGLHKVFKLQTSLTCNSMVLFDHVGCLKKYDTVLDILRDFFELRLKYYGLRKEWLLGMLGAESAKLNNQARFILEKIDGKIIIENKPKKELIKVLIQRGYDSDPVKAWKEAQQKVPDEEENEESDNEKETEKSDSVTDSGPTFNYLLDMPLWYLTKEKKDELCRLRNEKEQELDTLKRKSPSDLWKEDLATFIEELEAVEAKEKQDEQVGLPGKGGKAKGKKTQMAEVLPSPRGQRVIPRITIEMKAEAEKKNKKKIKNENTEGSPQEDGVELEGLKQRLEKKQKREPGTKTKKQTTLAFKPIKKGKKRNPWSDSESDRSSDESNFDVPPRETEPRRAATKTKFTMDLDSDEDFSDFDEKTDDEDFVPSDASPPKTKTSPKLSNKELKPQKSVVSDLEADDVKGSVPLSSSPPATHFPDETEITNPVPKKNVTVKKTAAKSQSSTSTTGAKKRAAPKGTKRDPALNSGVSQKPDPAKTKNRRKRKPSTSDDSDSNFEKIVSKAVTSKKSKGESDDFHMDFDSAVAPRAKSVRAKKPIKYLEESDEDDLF
Poly [ADP-ribose] polymerase 1, sequence (P09874 whole entry): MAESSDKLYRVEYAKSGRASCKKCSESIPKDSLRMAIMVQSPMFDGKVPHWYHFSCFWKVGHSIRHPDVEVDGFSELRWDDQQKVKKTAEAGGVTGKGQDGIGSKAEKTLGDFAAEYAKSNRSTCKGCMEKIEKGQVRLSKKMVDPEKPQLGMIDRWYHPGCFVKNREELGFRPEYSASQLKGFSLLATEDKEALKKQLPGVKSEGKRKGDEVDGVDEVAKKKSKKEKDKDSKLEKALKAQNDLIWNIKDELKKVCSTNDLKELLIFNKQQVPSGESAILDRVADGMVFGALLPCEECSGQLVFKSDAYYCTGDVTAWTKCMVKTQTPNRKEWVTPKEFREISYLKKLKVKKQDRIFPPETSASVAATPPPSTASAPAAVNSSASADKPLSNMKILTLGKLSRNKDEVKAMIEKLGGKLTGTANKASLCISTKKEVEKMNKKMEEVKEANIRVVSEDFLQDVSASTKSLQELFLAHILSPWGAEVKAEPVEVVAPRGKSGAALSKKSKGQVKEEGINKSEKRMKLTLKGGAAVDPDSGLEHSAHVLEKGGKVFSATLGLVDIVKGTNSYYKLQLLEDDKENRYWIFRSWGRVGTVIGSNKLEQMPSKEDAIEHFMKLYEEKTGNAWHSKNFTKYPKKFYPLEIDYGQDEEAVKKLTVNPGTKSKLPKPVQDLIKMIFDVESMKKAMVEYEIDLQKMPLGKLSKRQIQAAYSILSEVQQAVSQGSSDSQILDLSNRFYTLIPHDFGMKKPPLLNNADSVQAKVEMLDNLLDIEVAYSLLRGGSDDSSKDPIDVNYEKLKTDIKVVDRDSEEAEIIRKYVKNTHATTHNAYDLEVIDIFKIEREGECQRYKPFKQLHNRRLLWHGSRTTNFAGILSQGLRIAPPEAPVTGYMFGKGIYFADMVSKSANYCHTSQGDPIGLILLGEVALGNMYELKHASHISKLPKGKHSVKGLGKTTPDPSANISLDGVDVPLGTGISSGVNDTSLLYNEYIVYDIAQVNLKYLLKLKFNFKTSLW

- IC50 [1]: 450 nM
- inhibition [2]: Active
- microsomal CLint at 1.11 µM [9]: 35.6 µL/min/mg
- half-life at 1.11 µM [10]: 1.44 h
SMILES: Cc1cccc2c(Nc3cccc(-c4nc5c(C(N)=O)cccc5[nH]4)c3)c3ccccc3nc12
- Ratio IC50 (HCC1937): 9.5
- Activity (MCF7 [3]): 8.18%
- Activity (MCF7 [4]): 9.58%
- Activity (MCF7 [5]): Dose-dependent effect
- Activity (MCF7 [6]): 58.27%
- Activity (MCF7 [7]): Dose-dependent effect
- Activity (MCF7 [8]): Active
